Patent US20050234029A1, “Compounds” (priority 2002, published 2005)

Tested on: not given
Experiment: not given
Settings: not given

Structure (SMILES)	melting point
Clc1cccc(-c2nc3ccccn3c2-c2ccnc(-c3ccc(OCCN4CCCC4)cc3)c2)c1 [Example 37, 2-(3-Chloro-phenyl)-3-{2-[4-(2-(pyrrolidin-1-yl)ethoxy)phenyl]-pyridin-4-yl}-imidazo[1,2-a]pyridine]	298 °C
Cc1cccc(-c2nc3ccc(Cl)cn3c2-c2ccnc(-c3ccc(CN4CCOCC4)cc3)c2)n1 [Example 21, 6-Chloro-2-(6-methyl-pyridin-2-yl)-3-[2-(4-(morpholin-4-yl-methyl)phenyl)-pyridin-4-yl]-imidazo[1,2-a]pyridine]	157 °C
CCN1CCN(C(=O)c2ccc(-c3cc(-c4c(-c5cccc(C)n5)nc5c(C)cccn45)ccn3)cc2)CC1 [Example 32, 8-Methyl-2-(6-methyl-pyridin-2-yl)-3-{2-[4-((1-ethyl-piperazin-4-yl)carbonyl)phenyl]-pyridin-4-yl}-imidazo[1,2-a]pyridine]	212 °C
Cc1cccc(-c2nc3ccc(Cl)cn3c2-c2ccnc(-c3ccc(CN4CCCC4)cc3)c2)n1 [Example 23, 6-Chloro-2-(6-methyl-pyridin-2-yl)-3-[2-(4-(pyrrolidin-1-yl-methyl)phenyl)-pyridin-4-yl]-imidazo[1,2-a]pyridine]	134 °C
CC(=O)Nc1ccc(-c2cc(-c3c(-c4ccccn4)nc4ccccn34)ccn2)cc1 [Example 9, 3-[2-(4-(Methylcarbonylamino)phenyl)-pyridin-4-yl]-2-pyridin-2-yl-imidazo[1,2-a]pyridine]	133 °C
Cc1ccn2c(-c3ccnc(-c4ccc(CN5CCOCC5)cc4)c3)c(-c3cccc(C)n3)nc2c1 [Example 22, 7-Methyl-2-(6-methyl-pyridin-2-yl)-3-[2-(4-(morpholin-4-yl-methyl)phenyl)-pyridin-4-yl]-imidazo[1,2-a]pyridine]	188 °C
CC(=O)Nc1ccc(-c2cc(-c3c(-c4cccc(C)n4)nc4ccccn34)ccn2)cc1 [Example 10, 3-[2-(4-(methylcarbonylamino)phenyl)-pyridin-4-yl]-2-(6-methyl-pyridin-2-yl)-imidazo[1,2-a]pyridine]	257 °C
COc1ccc(-c2cc(-c3c(-c4cccc(C)n4)nc4ccccn34)ccn2)cc1 [Example 2, 3-[2-(4-methoxy-phenyl)-pyridin-4-yl]-2-(6-methyl-pyridin-2-yl)-imidazo[1,2-a]pyridine]	174 °C
O=C(c1ccc(-c2cc(-c3c(-c4cccc(F)n4)nc4ccccn34)ccn2)cc1)N1CCOCC1 [Example 33, 2-(6-Fluoro-pyridin-2-yl)-3-{2-[4-((morpholiny-4-yl)carbonyl)phenyl]-pyridin-4-yl}-imidazo[1,2-a]pyridine]	191 °C
CS(=O)(=O)c1ccc(-c2cc(-c3c(-c4ccccn4)nc4ccccn34)ccn2)cc1 [Example 5, 3-[2-(4-Methanesulfonyl-phenyl)-pyridin-4-yl]-2-pyridin-2-yl-imidazo[1,2-a]pyridine]	242 to 244 °C
CS(=O)(=O)Nc1ccc(-c2cc(-c3c(-c4cccc(Cl)c4)nc4ccccn34)ccn2)cc1 [Example 11, 2-(3-chloro-phenyl)-3-[2-(4-(methanesulfonylamino)phenyl)-pyridin-4-yl]-imidazo[1,2-a]pyridine]	60 °C
Cc1cccc(-c2nc3ccccn3c2-c2ccnc(-c3ccc(C(=O)NC4CCOCC4)cc3)c2)n1 [Example 27, 3-[2-(4-((tetrahydropyran-4-yl)aminocarbonyl)phenyl)-pyridin-4-yl]-2-(6-methyl-pyridin-2-yl)-imidazo[1,2-a]pyridine]	128 °C
Fc1ccc(-c2nc3ccccn3c2-c2ccnc(-c3ccc(CN4CCOCC4)cc3)c2)cc1Cl [Example 18, 2-(3-Chloro-4-fluoro-phenyl)-3-[2-(4-(morpholin-4-yl-methyl)phenyl)-pyridin-4-yl]-imidazo[1,2-a]pyridine]	189 °C
CC(=O)c1ccc(-c2cc(-c3c(-c4ccccn4)nc4ccccn34)ccn2)cc1 [Example 8, 3-[2-(4-(Acetyl)phenyl)-pyridin-4-yl]-2-(pyridin-2-yl)-imidazo[1,2-a]pyridine]	214 °C
Fc1ccc(-c2nc3ccccn3c2-c2ccnc(-c3ccc(CN4CCOCC4)cc3)c2)cc1F [Example 20, 2-(3,4-Difluoro-phenyl)-3-[2-(4-(morpholin-1-yl-methyl)phenyl)-pyridin-4-yl]-imidazo[1,2-a]pyridine]	205 °C
Cc1cccc(-c2nc3c(C)cccn3c2-c2ccnc(-c3ccc(CN4CCOCC4)cc3)c2)n1 [Example 24, 8-Methyl-2-(6-methyl-pyridin-2-yl)-3-{2-[4-((morpholin-4-yl)methyl)phenyl]-pyridin-4-yl}-imidazo[1,2-a]pyridine]	122 °C
Cc1cccc(-c2nc3ccccn3c2-c2ccnc(-c3ccc(C#N)cc3)c2)n1 [Example 4]	214 °C
Fc1ccc(-c2nc3ccccn3c2-c2ccnc(-c3ccc(CN4CCCC4)cc3)c2)cc1F [Example 19, 2-(3,4-Difluoro-phenyl)-3-[2-(4-(pyrrolidin-1-yl-methyl)phenyl)-pyridin-4-yl]-imidazo[1,2-a]pyridine]	155 °C
c1ccc(-c2nc3ccccn3c2-c2ccnc(-c3ccc(CN4CCOCC4)cc3)c2)nc1 [Example 17, 3-[2-(4-(Morpholin-4-yl-methyl)-phenyl)-pyridin-4-yl]-2-pyridin-2-yl-imidazo[1,2-a]pyridine]	80 °C (dec.)
Cc1cccc(-c2nc3ccccn3c2-c2ccnc(-c3ccc(OC(F)(F)F)cc3)c2)n1 [Example 3, 2-(6-methyl-pyridin-2-yl)-3-[2-(4-trifluoromethoxy-phenyl)-pyridin-4-yl]-imidazo[1,2-a]pyridine]	120 °C
Cc1ccn2c(-c3ccnc(-c4ccc(OCCN5CCCC5)cc4)c3)c(-c3cccc(C)n3)nc2c1 [Example 38, 7-Methyl-2-(6-methyl-pyridin-2-yl)-3-{2-[4-(2-(pyrrolidin-1-yl)ethoxy)phenyl]-pyridin-4-yl}-imidazo[1,2-a]pyridine]	163 °C
O=C(NC1CCOCC1)c1ccc(-c2cc(-c3c(-c4ccccn4)nc4ccccn34)ccn2)cc1 [Example 26, 3-[2-(4-((Tetrahydropyran-4-yl)aminocarbonyl)phenyl)-pyridin-4-yl]-2-pyridin-2-yl-imidazo[1,2-a]pyridine]	179 °C

Molecular target: T1, recombinant GST-ALK5 (residues 198-503) (Homo sapiens, UniProt P36897)
T1 construct: assays using recombinant GST-ALK5 (residues 198-503)
T1 sequence (P36897 198-503): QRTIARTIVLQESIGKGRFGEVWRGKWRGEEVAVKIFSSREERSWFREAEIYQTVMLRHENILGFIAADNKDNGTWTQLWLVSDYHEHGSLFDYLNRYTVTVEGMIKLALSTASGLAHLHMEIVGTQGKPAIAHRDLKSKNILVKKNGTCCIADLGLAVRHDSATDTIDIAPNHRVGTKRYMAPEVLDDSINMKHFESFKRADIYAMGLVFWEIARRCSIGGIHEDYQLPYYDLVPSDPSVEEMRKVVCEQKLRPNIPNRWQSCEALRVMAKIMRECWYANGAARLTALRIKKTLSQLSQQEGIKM
Experiment: Alk5 fluorescence polarization assay
Format: binding
Settings: rhodamine green-labelled ligand 1 nM, ALK5 10 nM, read-out: ALK5 receptor modulator activity (IC50)
Procedure: Assay 2 (Alk5 Fluorescence Polarization Assay)
Kinase inhibitor compounds conjugated to fluorophores, can be used as fluorescent ligands to monitor ATP competitive binding of other compounds to a given kinase. The increase in depolarization of plane polarized light, caused by release of the bound ligand into solution, is measured as a polarization/anisotropy value. This protocol details the use of a rhodamine green-labelled ligand for assays using recombinant GST-ALK5 (residues 198-503).
Assay buffer components: 62.5 mM Hepes pH 7.5 (Sigma H-4034), 1 mM DTT (Sigma D-0632), 12.5 mM MgCl2 (Sigma M-9272), 1.25 mM CHAPS (Sigma C-3023). […]
ALK5 was added to assay buffer containing the above components and 1 nM of the rhodamine green-labelled ligand so that the final ALK5 concentration was 10 nM based on active site titration of the enzyme. […] The plates were read immediately on a LJL Acquest fluorescence reader (Molecular Devices, serial number AQ1048) with excitation, emission, and dichroic filters of 485 nm, 530 nm, and 505 nm, respectively. The fluorescence polarization for each well was calculated by the Acquest reader and then imported into curve fitting software for construction of concentration response curves. The normalized response was determined relative to the high controls (1 μl DMSO in column 12, rows A-D) and the low controls (1 μl of control compound in column 12, rows E-H). […]

Structure (SMILES)	IC50
Cc1ccn2c(-c3ccnc(-c4ccc(OCCN5CCCC5)cc4)c3)c(-c3cccc(C)n3)nc2c1 [Example 38, 7-Methyl-2-(6-methyl-pyridin-2-yl)-3-{2-[4-(2-(pyrrolidin-1-yl)ethoxy)phenyl]-pyridin-4-yl}-imidazo[1,2-a]pyridine]	15 nM
Cc1cccc(-c2nc3ccccn3c2-c2ccnc(-c3ccc(S(C)(=O)=O)cc3)c2)n1 [Example 6, 3-[2-(4-Methanesulfonyl-phenyl)-pyridin-4-yl]-2-(6-methyl-pyridin-2-yl)-imidazo[1,2-a]pyridine]	11 nM

Tested on: TGF-β signalling (PAI-1 promoter-luciferase in HepG2 cells)
Experiment: Cellular transcriptional assay (PAI-1 promoter luciferase reporter)
Format: cell-based
Settings: Homo sapiens, PAI-1 promoter firefly luciferase, rhTGFβ-1 1 ng/mL
Procedure: Assay 1 (Cellular Transcriptional Assay)
These plates were placed in a cell incubator.
Columns 11 and 12 were employed as controls.

Structure (SMILES)	IC50
Cc1ccn2c(-c3ccnc(-c4ccc(OCCN5CCCC5)cc4)c3)c(-c3cccc(C)n3)nc2c1 [Example 38, 7-Methyl-2-(6-methyl-pyridin-2-yl)-3-{2-[4-(2-(pyrrolidin-1-yl)ethoxy)phenyl]-pyridin-4-yl}-imidazo[1,2-a]pyridine]	127 nM
Cc1cccc(-c2nc3ccccn3c2-c2ccnc(-c3ccc(S(C)(=O)=O)cc3)c2)n1 [Example 6, 3-[2-(4-Methanesulfonyl-phenyl)-pyridin-4-yl]-2-(6-methyl-pyridin-2-yl)-imidazo[1,2-a]pyridine]	125 nM
